Data: PubChem BioAssay (NCI)
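A five-concentration, 48-hour dose response in 96-well plates underlies each endpoint, interpolated linearly between surrounding concentrations. GI50 marks 50% less growth. TGI: total growth inhibition.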

Key:
Experiment in all cases: NCI anticancer screen, dose series, 48 h
HOP-62 NSCLC = tested on: HOP-62 NSCLC
NCI-H460 lung = tested on: NCI-H460 lung
HT29 colon = tested on: HT29 colon
T-47D breast = tested on: T-47D breast
M14 melanoma = tested on: M14 melanoma
SW-620 colon = tested on: SW-620 colon
KM12 colon = tested on: KM12 colon
SK-OV-3 ovarian = tested on: SK-OV-3 ovarian
SF-539 CNS = tested on: SF-539 CNS
NCI-H522 lung = tested on: NCI-H522 lung

SMILES	GI50 (HOP-62 NSCLC)	TGI (HOP-62 NSCLC)	GI50 (NCI-H460 lung)	TGI (NCI-H460 lung)	GI50 (HT29 colon)	TGI (HT29 colon)	GI50 (T-47D breast)	TGI (T-47D breast)	GI50 (M14 melanoma)	TGI (M14 melanoma)	GI50 (SW-620 colon)	TGI (SW-620 colon)	GI50 (KM12 colon)	TGI (KM12 colon)	GI50 (SK-OV-3 ovarian)	TGI (SK-OV-3 ovarian)	GI50 (SF-539 CNS)	TGI (SF-539 CNS)	GI50 (NCI-H522 lung)	TGI (NCI-H522 lung)
C=CC1CC12C(=O)C1OC2(C)C2C(=O)c3ccccc3C(=O)C12 (centres undefined)	> 68 µM	> 100 µM	> 58.3 µM	> 100 µM	> 61.6 µM	> 100 µM	51.4 µM	> 100 µM	> 100 µM	> 100 µM	45.3 µM	> 100 µM	> 45.3 µM	> 80.8 µM	> 93.3 µM	> 100 µM	> 82 µM	> 100 µM	> 61.7 µM	> 100 µM
COc1ccc2c(c1)Oc1nc(N)c(C#N)c(N)c1C2Sc1ccc(SC)cc1 (centres undefined)	1.83 µM	3.49 µM	2.04 µM	4.05 µM	2.2 µM	4.36 µM	1.94 µM	4.91 µM	1.76 µM	3.33 µM			1.78 µM	3.49 µM	1.77 µM	3.16 µM	1.72 µM	3.11 µM	1.65 µM	3.08 µM
COc1cc(OC)c(-c2cc(=O)c3c(OC)c(OC)c(OC)c(OC)c3o2)cc1OC		> 100 µM		> 100 µM		> 100 µM		> 100 µM		> 100 µM		> 100 µM		> 100 µM		> 100 µM		> 100 µM		> 100 µM
Cc1nc2sc(C(=O)Nc3cccc4ccccc34)c(N)c2cc1C(C)O (centres undefined)	0.244 µM	> 50 µM	0.184 µM	9.91 µM	0.191 µM	14.9 µM	0.183 µM	> 50 µM	0.176 µM	> 50 µM	0.175 µM	> 50 µM	0.199 µM	> 50 µM	0.196 µM	> 50 µM	0.155 µM	0.968 µM	0.207 µM	> 22.4 µM
COc1ccc(-c2cc3cccc(OC)c3c(=O)o2)cc1OC	62.5 µM	> 100 µM	31.1 µM	> 100 µM	8.49 µM	> 100 µM	28.3 µM	> 100 µM	93.9 µM	> 100 µM	40 µM	> 100 µM	92.2 µM	> 100 µM	46.2 µM	> 100 µM	0.559 µM	22.9 µM	48.6 µM	> 100 µM
O=C1c2ccn(CCCCN3CCOCC3)c2C(=O)c2c1c(O)c1ccccc1c2O	14.7 µM	34.5 µM	12.3 µM	28.4 µM	3.75 µM	97 µM	8.45 µM	97.7 µM	2.36 µM	6.32 µM			5.21 µM	18.8 µM	16.2 µM	55.4 µM			40.3 µM	> 100 µM
O=C1C(=O)c2ccc(Br)cc2-c2cc(Br)ccc21	8.44 µM	> 45.6 µM	4.5 µM	> 89.2 µM	> 74.3 µM	> 100 µM	1.41 µM	3.92 µM	6.34 µM	> 66.6 µM	0.84 µM	2.91 µM	9.65 µM	> 100 µM	29.1 µM	> 87.5 µM	8.43 µM	26.3 µM	0.407 µM	1.74 µM
Cc1ccc(S(=O)(=O)N(C)C)cc1[N+](=O)[O-]	> 100 µM	> 100 µM	> 100 µM	> 100 µM	> 100 µM	> 100 µM	> 100 µM	> 100 µM	> 100 µM	> 100 µM	> 100 µM	> 100 µM	> 100 µM	> 100 µM	> 100 µM	> 100 µM	> 100 µM	> 100 µM	> 100 µM	> 100 µM
CCCOC(=O)N[C@H]1CCc2c(Br)c(OC)c(OC)c(OC)c2-c2ccc(SC)c(=O)cc21	0.0633 µM	> 100 µM	0.0306 µM	2.02 µM	0.0297 µM	> 48 µM	14.1 µM	> 100 µM	0.0207 µM	3.67 µM	0.0245 µM	> 100 µM	< 0.0145 µM	7.92 µM	0.0726 µM	59.5 µM	0.0213 µM	0.0688 µM	< 0.0119 µM	0.558 µM
COc1ccc(/C=C2/CN(C(=O)c3ccccc3F)C/C(=C\c3ccc(OC)cc3)C2=O)cc1	3.77 µM	14.6 µM	8.81 µM	30.8 µM	1.96 µM	3.78 µM	5.65 µM	76.2 µM	2.73 µM	7.51 µM	1.86 µM	3.84 µM	1.91 µM	3.59 µM	4.58 µM	18.3 µM	3.65 µM	14.6 µM	4.2 µM	15 µM
O=C(c1ccccc1)c1ccc(-c2ccc(O)cc2)cc1	7.08 µM	25.9 µM	4.2 µM	39.3 µM	31.7 µM	> 100 µM	3.75 µM	35.6 µM	2.04 µM	> 100 µM	5.23 µM	> 100 µM	2.85 µM	22.3 µM	14.8 µM	> 71.6 µM	14.6 µM	56.9 µM	1.66 µM	8.47 µM
COc1ccc2c(c1)O/C(=C\c1cccc(OCC(=O)Nc3nc4ccccc4s3)c1)C2=O	41.1 µM	> 100 µM	> 64.4 µM	> 100 µM	> 58.7 µM	> 100 µM	9.66 µM	> 100 µM	36.3 µM	> 100 µM	38.4 µM	> 100 µM	9.61 µM	> 100 µM	> 100 µM	> 100 µM	24.7 µM	> 84.5 µM	0.718 µM	2.74 µM
CC1(C)CCC(S(=O)(=O)c2ccc3c(c2)/C(=N\O)c2cc(S(=O)(=O)N4CCC(O)(c5cccc(C(F)(F)F)c5)CC4)ccc2-3)CC1	0.0208 µM	0.0489 µM	0.0261 µM	0.0613 µM	0.0257 µM	0.0723 µM	0.0192 µM	0.0414 µM	0.019 µM	0.0375 µM	0.0154 µM	0.0319 µM	0.0217 µM	0.0503 µM	0.0238 µM	0.0593 µM	0.0204 µM	0.0448 µM	0.0198 µM	0.0452 µM
